Laboratory results reported in patent publication US10300143B2, “Compositions for treating cancer and methods for making the same” (THE BRIGHAM AND WOMEN'S HOSPITAL, INC., priority 2012, dated 2019).
Entries after “also recorded” stand apart in the source; their conditions may differ.

Legend:
[1] = test system: phosphorylation of Akt in 4T1 cells; assay: Western blot assay of phospho AKT in cells; type: cell-based, murine
Protocol: The protein was collected and protein lysates were electrophoresed. Then membranes were incubated with Phospho AKT, total AKT and actin antibodies overnight at 4° C. After appropriate amount of washing with TBST, membranes were incubated with horseradish peroxidase-conjugated secondary antibody for 1 hour. Detection was done using G-box (Syngene) and densitometric quantification was done by image J software. […] When cells were 70% confluent, they were incubated in serum free media for 6 hours. Then, free drug or equivalent amount of drug loaded nanoparticles were added in appropriate concentration in serum deprived media (1% FBS). […] Amount of protein was measured by […] and equal amount of protein lysates were electrophoresed on a 4-20% polyacrylamide gel, transferred to polyvinylidene difluoride membrane, and blocked in TBST-T with 5% dry milk. Then membranes were incubated in TBST with Phospho AKT (S473) (1:500 dilution), total AKT (1:1000 dilution), and actin (1:2000 dilution) antibodies (all antibodies from Cell Signalling Technology) overnight at 4° C. After appropriate amount of washing with TBST, membranes were incubated with horseradish peroxidase-conjugated secondary antibody for 1 hour. Detection was done using G-Box™ from Syngene and densitometric quantification was done by image J™ software.

4T1 breast cancer tumors = assay: Efficacy study of SNPs in murine 4T1 breast cancer model; type: in vivo, BALB/c mice; conditions: 5 mg/kg PI103 equivalent, 3 injections every other day
Protocol: 4T1 breast cancer cells ([…]) were implanted subcutaneously in the flanks of 4-week-old BALB/c mice. The drug therapy was started on day 9. The drug therapy consisted of administration of PBS (for Control group), free drug (5 mg/kg) and SNPs (5 mg/kg). For PI103-SNPs, the drug therapy also consisted iRGD-PI103-SNPs group (5 mg/kg). The tumor volumes and body weights were monitored on every alternate day for 11 days.
The drug therapy was started on day 9. For PI828-SNPs, the drug therapy consisted of administration of PBS (for Control group), free PI-828 (5 mg/kg) and PI828-SNPs (5 mg/kg). For PI103-SNPs, the drug therapy consisted of administration of PBS (for control group), free PI-103 (5 mg/kg) and PI103-SNPs (5 mg/kg) and 1RGD-PI103-SNPs (5 mg/kg) (administered by tail-vain injection). The tumor volumes and body weights were monitored on every alternate day for 11 days. […] The animals were sacrificed when the average tumor volume of the control exceeded 2000 mm3 in the control group.

[2] = test system: phospho AKT, phospho mTOR, phospho 4EBP in 4T1 tumors; assay: Western blot assay of in vivo 4T1 tumor samples; set-up: species or system BALB/c mice; conditions: single injection 5 mg/kg, 72 hours
Protocol: For animal tissue, tumor stored in −80° C. were pulverized in a mortar and pestle using liquid nitrogen, then treated with RIPA buffer to extract the protein. Amount of protein was measured by BCA assay and equal amount of protein lysates were electrophoresed on a polyacrylamide gel, then transferred to polyvinylidene difluoride membrane, (BIO-RAD) and blocked in with 5% milk solution. Then membranes were incubated with appropriate concentration of primary antibody overnight at 4° C., followed by horseradish peroxidase-conjugated secondary antibody for 1 hour. Detection was done using G-box from SYNGENE and densitometric quantification was done by IMAGE-J software.
For animal tissue, tumor stored in −80° C. were pulverized in a mortar and pestle using liquid nitrogen, then treated with RIPA buffer to extract the protein. Amount of protein was measured by BCA assay and equal amount of protein lysates were electrophoresed on a polyacrylamide gel, then transferred to polyvinylidene difluoride membrane, (Bic-Rad) and blocked in with 5% milk scullion. Then membranes were incubated with appropriate concentration of primary antibody (all antibodies from Cell Signalling Technology) overnight at 4° C., followed by horseradish peroxidase-conjugated secondary antibody for 1 hour. Detection was done using G-box from Syngene and densitometric quantification was done by image J™ software.

[3] = Insulin tolerance test using PI103-SNPs; type: in vivo, mice (murine 4T1 breast cancer model); conditions: 5 mg/kg single dose, insulin 0.75 U/kg 1 hour later, glucose 45 min after insulin
Protocol: Random fed mice (murine 4T1 breast cancer model) were injected with a single dose of Empty nanoparticles (Control), Free PI-103 (5 mg/kg) and PI103-SNPs via tail vain injections. Freshly prepared Insulin solution (0.75 U/Kg) in 0.1 ml 0.9% NaCl was injected intraperitoneally to mice 1 hour after the drug administration. The blood glucose levels were measured before and 45 min after the insulin injections using glucometer.

[4] = test system: K-Ras^LSL/+/Pten^fl/fl ovarian cancer; assay: Efficacy study of PI103-SNPs in murine ovarian cancer tumor model; type: in vivo, mice; conditions: after 3 doses, 5 mg/kg
Protocol: Ovarian adenocarcinomas were induced in genetically engineered K-Ras^LSL/+/Pten^fl/fl mice via intrabursal delivery of adenovirus-carrying Cre recombinase. Tumor cells were also engineered to express luciferase once activated by Adeno-Cre to make tumor imaging possible before and after drug treatment. Once mice developed medium to large tumors, they were placed into one of four treatment groups (vehicle, Free-PI-103 5 mg/kg, PI-103-SNP 5 mg/kg, and iRGD-PI103-SNP 5 mg/kg) and all drugs were administered via tail vein injection. Tumor imaging in vivo was performed using an 1VIS Lumina II Imaging System. Quantification of bioluminescence was achieved by using Living Image Software 3.1 (Caliper Life Sciences). Images were taken a day prior to initial treatment (day 0, baseline image), after 3 treatments, and 1 d after 5 treatments.
Ovarian adenocarcinomas were induced in genetically engineered K-ras isu+/Pten mice via intrabursal delivery of adenovirus-carrying Cre recombinase. Tumor cells were also engineered to express luciferase once activated by Adeno-Cre to make tumor imaging possible before and after drug treatment. […] Quantification of bioluminescence was achieved by using Living Image Software 3.1™ (Caliper Life Sciences). […]

PI3K = conditions: cited from earlier work
[5] = cited from earlier work

Oc1cccc(-c2nc(N3CCOCC3)c3oc4ncccc4c3n2)c1 [PI103]
phosphorylation of AKT after transient exposure ([1]; 4 hours exposure, wash, followed to 48 hours): rebound increase in phosphorylation of AKT
basal phosphorylation of Akt ([1]; equimolar PI103 (5 pM), continuous incubation, 48 hours): inhibited basal phosphorylation of Akt even at 48 hours of continuous incubation
tumor growth (4T1 breast cancer tumors): tumor growth inhibition relative to PBS-treated controls, but tumor rebound was observed after the treatment was stopped
intratumoral Akt phosphorylation [2]: intratumoral Akt phosphorylation was inhibited
blood glucose level after insulin injection [3]: only a minor decrease in blood glucose level
tumor luciferase bioluminescence [4]: significant tumor regression as compared to vehicle control
PI3K inhibitory potency (PI3K): excellent potency in the low nanomolar range; also recorded: more potent
aqueous solubility [5]: limited aqueous solubility
